# Results taken from patent US12577257B2, “Heterocyclic compounds” (Hoffmann-La Roche Inc., priority 2018, dated 2026).
# Molecular target: T1, MAGL (Homo sapiens, UniProt Q99685)
# T1 sequence (Q99685 1-303): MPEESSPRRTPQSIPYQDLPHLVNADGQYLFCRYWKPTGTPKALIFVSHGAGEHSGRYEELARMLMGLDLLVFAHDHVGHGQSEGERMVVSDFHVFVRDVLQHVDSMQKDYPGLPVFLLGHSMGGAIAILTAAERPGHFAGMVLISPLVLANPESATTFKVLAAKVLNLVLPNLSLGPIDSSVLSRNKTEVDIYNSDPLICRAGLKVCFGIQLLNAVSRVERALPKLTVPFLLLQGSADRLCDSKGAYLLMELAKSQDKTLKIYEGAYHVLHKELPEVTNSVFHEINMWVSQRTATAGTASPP
# Assay: MAGL inhibition, Table 1 values with no assay marker (2-AG or 4-NPA assay not stated)
# Assay type: biochemical
# Method: Compounds were profiled for MAGL inhibitory activity by measuring the enzymatic activity of MAGL by following the hydrolysis of 4-nitrophenylacetate resulting in 4-nitrophenol, which absorbs at 405-412 nm (G. G. Muccioli, G. Labar, D. M. Lambert, Chem. Bio. Chem. 2008, 9, 2704-2710). This assay is hereinafter abbreviated “4-NPA assay”.
# The 4-NPA assay was carried out in 384 well assay plates (black with clear bottom, non-binding surface treated, Corning Ref. 3655) in a total volume of 40 μL. Compound dilutions were made in 100% DMSO (VWR Chemicals 23500.297) in a polypropylene plate in 3-fold dilution steps to give a final concentration range in the assay from 25 μM to 1.7 nM. 1 μL compound dilutions (100% DMSO) were added to 19 μL MAGL (recombinant wild-type) in assay buffer (50 mM TRIS (GIBCO, 15567-027), 1 mM EDTA (Fluka, 03690-100 ml)). The plate was shaked for 1 min at 2000 rpm (Variomag Teleshake) and then incubated for 15 min at RT. To start the reaction, 20 μL 4-Nitrophenylacetate (Sigma N-8130) in assay buffer with 6% EtOH was added. The final concentrations in the assay were 1 nM MAGL and 300 μM 4-Nitrophenylacetate. After shaking (1 min, 2000 rpm) and 5 min incubation at RT, the absorbance at 405 nm was measured for a first time (Molecular Devices, SpectraMax Paradigm). A second measurement was then done after incubation for 80 min at RT. From the two measurements, the slope was calculated by subtracting the first from the second measurement.
# Alternatively, compounds were profiled for MAGL inhibitory activity by determining the enzymatic activity by following the hydrolysis of the natural substrate 2-arachidonoylglycerol resulting in arachidonic acid, which can be followed by mass spectrometry. This assay is hereinafter abbreviated “2-AG assay”.
# The 2-AG assay was carried out in 384 well assay plates (PP, Greiner Cat #784201) in a total volume of 20 μL. Compound dilutions were made in 100% DMSO (VWR Chemicals 23500.297) in a polypropylene plate in 3-fold dilution steps to give a final concentration range in the assay from 12.5 μM to […]. 0.25 μL compound dilutions (100% DMSO) were added to 9 μL MAGL in assay buffer (50 mM TRIS (GIBCO, 15567-027), 1 mM EDTA (Fluka, 03690-100 ml), 0.01% (v/v) Tween. After shaking, the plate was incubated for 15 min at RT. To start the reaction, 10 μL 2-arachidonoylglycerol in assay buffer was added. The final concentrations in the assay was […] and 8 μM 2-arachidonoylglycerol. After shaking and 30 min incubation at RT, the reaction was quenched by the addition of 40 μL of acetonitrile containing 4 μM of d8-arachidonic acid. The amount of arachidonic acid was traced by an online SPE system (Agilent Rapidfire) coupled to a triple quadrupole mass spectrometer (Agilent 6460). A C18 SPE cartridge (G9205A) was used in an acetonitrile/water liquid setup. The mass spectrometer was operated in negative electrospray mode following the mass transitions 303.1→259.1 for arachidonic acid and 311.1→267.0 for d8-arachidonic acid. The activity of the compounds was calculated based on the ratio of intensities [arachidonic acid/d8-arachidonic acid].
row,IC50 [nM],SMILES
1,0.03,"O=C1CO[C@H]2CCN(C(=O)N3CC4(CC(Cc5ccc(C(F)(F)F)cc5F)C4)C3)C[C@H]2N1 [Example 49, (4aR,8aS)-6-(6-(2-fluoro-4-(trifluoromethyl)benzyl)-2-azaspiro[3.3]heptane-2-carbonyl)hexahydro-2H-pyrido[4,3-b][1,4]oxazin-3(4H)-one]"
2,0.04,"O=C1CO[C@H]2CCN(C(=O)N3CC4(CC(Cc5ccc(F)cc5Cl)C4)C3)C[C@H]2N1 [Example 50, (4aR,8aS)-6-(6-(2-chloro-4-fluorobenzyl)-2-azaspiro[3.3]heptane-2-carbonyl)hexahydro-2H-pyrido[4,3-b][1,4]oxazin-3(4H)-one]"
3,0.17,"O=C1CO[C@H]2CCN(C(=O)N3CC4(CC(Cc5ccc(F)cc5F)C4)C3)C[C@H]2N1 [Example 51, (4aR,8aS)-6-(6-(2,4-difluorobenzyl)-2-azaspiro[3.3]heptane-2-carbonyl)hexahdyro-2H-pyrido[4,3-b][1,4]oxazin-3(4H)-one]"
4,0.03,"COc1cc(C(F)(F)F)ccc1CC1CC2(C1)CN(C(=O)N1CC[C@@H]3OCC(=O)N[C@@H]3C1)C2 [Example 52, (4aR,8aS)-6-(6-(2-methoxy-4-(trifluoromethyl)benzyl)-2-azaspiro[3.3]heptane-2-carbonyl)hexahydro-2H-pyrido[4,3-b][1,4]oxazin-3(4H)-one]"
5,0.05,"O=C1CO[C@H]2CCN(C(=O)N3CC4(CC(Cc5c(F)cccc5C(F)(F)F)C4)C3)C[C@H]2N1 [Example 53, (4aR,8aS)-6-(6-(2-fluoro-6-(trifluoromethyl)benzyl)-2-azaspiro[3.3]heptane-2-carbonyl)hexahydro-2H-pyrido[4,3-b][1,4]oxazin-3(4H)-one]"
6,1.46,"O=C1CO[C@H]2CCN(C(=O)N3CC4(CC(COc5ccc(F)cc5Cl)C4)C3)C[C@H]2N1 [Example 54, (4aR,8aS)-6-(6-((2-chloro-4-fluorophenoxy)methyl)-2-azaspiro[3.3]heptane-2-carbonyl)hexahydro-2H-pyrido[4,3-b][1,4]oxazin-3(4H)-one]"
7,1040,"O=C1CO[C@H]2CCN(C(=O)N3CC4(C3)CN(c3ccc(C(F)(F)F)cc3)C4)C[C@H]2N1 [Example 55, (4aR,8aS)-6-(6-(4-(trifluoromethyl)phenyl)-2,6-diazaspiro[3.3]heptane-2-carbonyl)hexahydro-2H-pyrido[4,3-b][1,4]oxazin-3(4H)-one]"
8,361,"O=C1CO[C@H]2CCN(C(=O)N3CC4(C3)CN(c3cccc(C(F)(F)F)c3)C4)C[C@H]2N1 [Example 56, (4aR,8aS)-6-(6-(3-(trifluoromethyl)phenyl)-2,6-diazaspiro[3.3]heptane-2-carbonyl)hexahydro-2H-pyrido[4,3-b][1,4]oxazin-3(4H)-one]"
9,70.7,"O=C1CO[C@H]2CCN(C(=O)N3CCC4(C3)CN(c3cccc(C(F)(F)F)c3)C4)C[C@H]2N1 [Example 58, (4aR,8aS)-6-(2-(3-(trifluoromethyl)phenyl)-2,6-diazaspiro[3.4]octane-6-carbonyl)hexahydro-2H-pyrido[4,3-b][1,4]oxazin-3(4H)-one]"
10,1100,"O=C1CO[C@H]2CCN(C(=O)N3CC4(C3)CN(c3cc(C(F)(F)F)ccc3C(F)(F)F)C4)C[C@H]2N1 [Example 65, (4aR,8aS)-6-(6-(2,5-bis(trifluoromethyl)phenyl)-2,6-diazaspiro[3.3]heptane-2-carbonyl)hexahydro-2H-pyrido[4,3-b][1,4]oxazin-3(4H)-one]"
11,195,"O=C1CO[C@H]2CCN(C(=O)N3CC4(C3)CN(S(=O)(=O)c3ccc(F)cc3C(F)(F)F)C4)C[C@H]2N1 [Example 66, (4aR,8aS)-6-(6-((4-fluoro-2-(trifluoromethyl)phenyl)sulfonyl)-2,6-diazaspiro[3.3]heptane-2-carbonyl)hexahydro-2H-pyrido[4,3-b][1,4]oxazin-3(4H)-one]"

# The remaining lines, values behind:
row,SMILES,IC50 [nM]
1,"O=C1CO[C@H]2CCN(C(=O)N3CC4(CC(c5ccc(S(F)(F)(F)(F)F)cc5)C4)C3)C[C@H]2N1 [Example 46, (4aR,8aS)-6-(6-(4-(pentafluoro-l6-sulfaneyl)phenyl)-2-azaspiro[3.3]heptane-2-carbonyl)hexahydro-2H-pyrido[4,3-b][1,4]oxazin-3(4H)-one]",14.5
2,"O=C1CO[C@H]2CCN(C(=O)N3CC4(CC(c5ccc(N6CCCC6C(F)(F)F)cc5)C4)C3)C[C@H]2N1 (stereo partly drawn) [Example 47, (4aR,8aS)-6-(6-(4-(2-(trifluoromethyl)pyrrolidin-1-yl)phenyl)-2-azaspiro[3.3]heptane-2-carbonyl)hexahydro-2H-pyrido[4,3-b][1,4]oxazin-3(4H)-one]",39.8
3,"Cn1nccc1-c1ccc(C2CC3(C2)CN(C(=O)N2CC[C@@H]4OCC(=O)N[C@@H]4C2)C3)cc1 [Example 48, (4aR,8aS)-6-(6-(4-(1-methyl-1H-pyrazol-5-yl)phenyl)-2-azaspiro[3.3]heptane-2-carbonyl)hexahydro-2H-pyrido[4,3-b][1,4]oxazin-3(4H)-one]",223
4,"O=C1CO[C@H]2CCN(C(=O)N3CCC4(C3)CN(c3ccc(C(F)(F)F)cc3)C4)C[C@H]2N1 [Example 57, (4aR,8aS)-6-(2-(4-(trifluoromethyl)phenyl)-2,6-diazaspiro[3.4]octane-6-carbonyl)hexahydro-2H-pyrido[4,3-b][1,4]oxazin-3(4H)-one]",175
5,"CC(C)Oc1ccc(N2CC3(CCN(C(=O)N4CC[C@@H]5OCC(=O)N[C@@H]5C4)C3)C2)cc1 [Example 59, (4aR,8aS)-6-(2-(4-isopropoxyphenyl)-2,6-diazaspiro[3.4]octane-6-carbonyl)hexahydro-2H-pyrido[4,3-b][1,4]oxazin-3(4H)-one]",297
6,"CC(C)Oc1ccc(N2CC3(CN(C(=O)N4CC[C@@H]5OCC(=O)N[C@@H]5C4)C3)C2)cc1 [Example 60, (4aR,8aS)-6-(6-(4-isopropoxyphenyl)-2,6-diazaspiro[3.3]heptane-2-carbonyl)hexahydro-2H-pyrido[4,3-b][1,4]oxazin-3(4H)-one]",1590
7,"O=C1CO[C@H]2CCN(C(=O)N3CCC4(C3)CN(c3ccc(N5CCCC5=O)cc3)C4)C[C@H]2N1 [Example 61, (4aR,8aS)-6-(2-(4-(2-oxopyrrolidin-1-yl)phenyl)-2,6-diazaspiro[3.4]octane-6-carbonyl)hexahydro-2H-pyrido[4,3-b][1,4]oxazin-3(4H)-one]",2300
8,"COc1ccc(N2CC3(CCN(C(=O)N4CC[C@@H]5OCC(=O)N[C@@H]5C4)C3)C2)cc1C [Example 62, (4aR,8aS)-6-(2-(4-methoxy-3-methylphenyl)-2,6-diazaspiro[3.4]octane-6-carbonyl)hexahydro-2H-pyrido[4,3-b][1,4]oxazin-3(4H)-one]",58.8
9,"O=C1CO[C@H]2CCN(C(=O)N3CCC4(C3)CN(c3ccc(Cl)c(C(F)(F)F)c3)C4)C[C@H]2N1 [Example 63, (4aR,8aS)-6-(2-(4-chloro-3-(trifluoromethyl)phenyl)-2,6-diazaspiro[3.4]octane-6-carbonyl)hexahydro-2H-pyrido[4,3-b][1,4]oxazin-3(4H)-one]",15.9
10,"O=C1CO[C@H]2CCN(C(=O)N3CCC4(C3)CN(c3ccnc(F)c3)C4)C[C@H]2N1 [Example 64, (4aR,8aS)-6-(2-(2-fluoropyridin-4-yl)-2,6-diazaspiro[3.4]octane-6-carbonyl)hexahydro-2H-pyrido[4,3-b][1,4]oxazin-3(4H)-one]",4970
